According to patent US12134759B2, “Glomerulus on a chip to recapitulate glomerular filtration barrier” (Children's Hospital Los Angeles, priority 2019, dated 2024):
Entries after “also recorded” stand apart in the source; their conditions may differ. No end group written: not given here.

Experiments:
podocytes in GOAC = test: F-actin staining of podocytes in the GOAC before and after PAN damage; type: cell-based, human; details: after PAN damage; hAKPC-P+hGEC, hiPOD+hGEC, hpPOD+hGEC chips
Method: Immunofluorescent staining was performed on OrganoPlate™ and chamber slides of representative cell types: following fixation by 4% paraformaldehyde (Santa Cruz Biotechnology c #sc-281692) and serial washes with PBS. Chips/wells of interest were prepared for staining by blocking with 5% bovine serum albumin (Jackson ImmunoResearch Lab, c #001-000-162) in PBS for 30 min. Primary, secondary, and pre-conjugated antibodies were diluted in 2.5% BSA Jackson ImmunoResearch Lab. c #001-000-162) as indicated in Table 1. Thirty microliters of solution were added to the top and bottom inlets and outlets of the chips or 100 μl of solution was added directly into the chamber slide wells. Primary antibodies were incubated at RT for 1 h; following serial washes, secondary antibodies were incubated at RT for 30 min. After a final series of washes in PBS, DAPI was applied (1:1000 in PBS; BD Pharmingen, c #564907) and the OrganoPlate™ or the wells were stored at 4° C. until imaged by confocal microscopy (Zeiss 710 microscope) and processed using the ZEN10 software.
In all, 10 μg/ml of PAN, a nephrotoxic molecule (Cayman Chemical c #15509), was supplemented to the media for 5 days. Media without PAN was used as a control. […] After PAN injury, damage was assessed using the albumin assay performed on the chip as described above.

[1] = system: GOAC (human podocytes + hGEC glomerular filtration barrier); test: Albumin permselectivity assay on the GOAC after puromycin aminonucleoside (PAN) injury; type: cell-based; details: PAN 5 days (10 μg/ml, 10 mg/ml elsewhere in the source); albumin-FITC 40 mg/ml; hAKPC-P+hGEC, hiPOD+hGEC, hpPOD+hGEC chips
Method: (§1) An albumin and inulin permeability assay were established to evaluate the efficiency of the created GFB. The number of chips used for each experiment is described in the corresponding figure legend. Media was aspirated from the bottom inlet and outlet, to which PBS was added. Then, media from the top inlet and outlet was aspirated. Fifty microliters albumin-FITC (Millipore Sigma, c #A9771) or inulin-FITC (10 mg/ml, Sigma, c #F3272) was added to the top inlet and outlet, such that the orientation of filtration would be simulated as in native blood flow: from endothelial cells, through podocytes, and into the urinary space of Bowman's capsule. […] Absorbance was measured using the Perkin Elmer Victor 3 plate reader using Wallac 1420 workstation software (fluorescein 485/535, 0.1 s). For long-term studies, the same chips were evaluated for permselectivity at respectively 1, 2, 3, and 4 weeks (hAKPC and hpPOD; hiPOD were evaluated for weeks 1 and 2 since after this time frame these chips are not properly functioning) after hGEC seeding. […] After each reading, as described above, the albumin-FITC solution and PBS were removed from the top and bottom inlets and outlets and chips were carefully rinsed with PBS twice to remove excess albumin-FITC before returning to fresh culture medium. […] Efficiency at each time point is expressed as %±SEM. […]

hAKPC-P+hGEC GOAC = test: α-MSH drug rescue of MN serum effect, albumin permselectivity assay; type: cell-based, human; details: 10 ng/ml α-MSH with 0.5% MN serum (MN3), 24 h; filtrate at 60 min
Method: as §1

Compound: CN(C)c1ncnc2c1ncn2[C@@H]1O[C@H](CO)[C@@H](N)[C@H]1O [PAN, puromycin aminonucleoside]
- podocyte cytoskeleton (F-actin staining) (podocytes in GOAC): cytoskeleton rearrangement; also recorded: widespread disruption of the cytoskeleton
- albumin permselectivity / albumin leakage (fluorescein absorbance in filtrate after 60 min) [1]: loss of permselectivity for albumin; also recorded: marked and statistically significant increase

Compound: α-Melanocyte-stimulating hormone (SYSMEHFRWGKPV; ends and bridges not checked; UniProt P01189 138-150, looked up) [α-MSH]
- proteinuria (albumin-FITC leakage) elicited by MN serum (hAKPC-P+hGEC GOAC): prevented proteinuria elicited by MN serum; also recorded: prevented the proteinuric effects of MN sera
